Test results reported in ChEMBL document CHEMBL1201862, “PubChem BioAssay data set” (2004).
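96-well plates; 48 h exposure; 5 concentrations. Endpoints by linear interpolation between flanking doses. Not reached: highest tested concentration assigned. GI50 = concentration required for 50% inhibition of growth.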 The source made the active and inactive calls. No stated cut-off is given here; in the data, active = GI50 up to about 1.1 µM and inactive = higher.

Columns and labels:
Test in all cases: growth of human tumour cells (NCI), 48 h
SR = tested on: SR
OVCAR-5 = tested on: OVCAR-5
UO-31 = tested on: UO-31
HCC 2998 = tested on: HCC 2998
U-251 = tested on: U-251
A498 = tested on: A498
HOP-62 = tested on: HOP-62
M14 = tested on: M14
UACC-257 = tested on: UACC-257
MOLT-4 = tested on: MOLT-4
K562 = tested on: K562
SK-MEL-2 = tested on: SK-MEL-2
ACHN = tested on: ACHN
A549 = tested on: A549
HT-29 = tested on: HT-29
OVCAR-3 = tested on: OVCAR-3
EKVX = tested on: EKVX
T47D = tested on: T47D
NCI/ADR-RES = tested on: NCI/ADR-RES
SF-268 = tested on: SF-268

| Compound | GI50 (SR) | GI50 (OVCAR-5) | GI50 (UO-31) | GI50 (HCC 2998) | GI50 (U-251) | GI50 (A498) | GI50 (HOP-62) | GI50 (M14) | GI50 (UACC-257) | GI50 (MOLT-4) | GI50 (K562) | GI50 (SK-MEL-2) | GI50 (ACHN) | GI50 (A549) | GI50 (HT-29) | GI50 (OVCAR-3) | GI50 (EKVX) | GI50 (T47D) | GI50 (NCI/ADR-RES) | GI50 (SF-268) |
| --- | --- | --- | --- | --- | --- | --- | --- | --- | --- | --- | --- | --- | --- | --- | --- | --- | --- | --- | --- | --- |
| CCN(CC)c1ccc2cc(-c3nnc(-c4ccccc4)o3)c(=O)oc2c1 | 6.64 µM (inactive) | 56.2 µM (inactive) | 19.1 µM (inactive) | 2.2 µM (inactive) | 11.3 µM (inactive) | 45.9 µM (inactive) | 17.6 µM (inactive) | 32.1 µM (inactive) | 32.5 µM (inactive) | 0.413 µM (active) | 1.4 µM (inactive) | 19.9 µM (inactive) | 18.2 µM (inactive) | 16.4 µM (inactive) | 25.4 µM (inactive) | 7.05 µM (inactive) | 59.8 µM (inactive) | 23.4 µM (inactive) | 7.67 µM (inactive) | 28 µM (inactive) |
| C=CCN1C(N)=C(C#N)C(C#N)(C#N)C1CCC (stereo not given) | > 100 µM (inactive) | > 100 µM (inactive) | 75.2 µM (inactive) | > 100 µM (inactive) | > 100 µM (inactive) | > 100 µM (inactive) | > 100 µM (inactive) | > 100 µM (inactive) | > 100 µM (inactive) | > 100 µM (inactive) | > 100 µM (inactive) | > 100 µM (inactive) | > 100 µM (inactive) | > 100 µM (inactive) | > 100 µM (inactive) | > 100 µM (inactive) | 47.4 µM (inactive) | 54.8 µM (inactive) | > 100 µM (inactive) | > 100 µM (inactive) |
| COc1ccc(CC2C(=O)NC(C)C(=O)N(C)C3C(=O)N(C)C(Cc4ccc(O)c(c4)Oc4ccc(cc4)C3O)C(=O)NC(C)C(=O)NC(C)C(=O)N2C)cc1.COc1ccc(CC2C(=O)NC(C)C(=O)N(C)C3Cc4ccc(cc4)Oc4cc(ccc4O)CC(C(=O)NC(C)C(=O)NC(C)C(=O)N2C)N(C)C3=O)cc1 (stereo not given) | 0.01 µM (active) | 0.00995 µM (active) | 0.136 µM (active) | 0.00619 µM (active) | 0.0012 µM (active) | 0.0282 µM (active) | 0.0552 µM (active) | 0.00582 µM (active) | 0.00322 µM (active) | 0.01 µM (active) | 0.01 µM (active) | 0.00114 µM (active) | 0.0995 µM (active) | 0.0177 µM (active) | 0.01 µM (active) | 0.01 µM (active) | 0.148 µM (active) | 0.00446 µM (active) | 1.5 µM (inactive) | 0.00316 µM (active) |
